In patent publication US8741892B2, “Compounds” (Boehringer Ingelheim International GmbH, priority 2011, dated 2014) one finds EC50 data, which are given here for 67 compounds.

For the assay, the target named is T1, human recombinant mGluR5 (Homo sapiens, UniProt P41594).
T1 construct: expressed in transfected cells; host or cells: HEK 293
The assay can be described thus: positive modulation of mGluR5, calcium based FLIPR assay. Conditions: HEK 293 cell line expressing human recombinant mGluR5; EC50 of the modulation from peak Ca fluorescence signal after glutamate at approx. 5% basal stimulation. The procedure, abridged:
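HEK 293 cells expressing human recombinant mGluR5, Calcium-4 dye-loaded in Ringer solution pH 7.4. Compound (1% DMSO final) preincubated 5 min, then glutamate at ~5% of maximal effect added; peak Ca2+ fluorescence gives EC50 by nonlinear regression, normalized to DMSO (100%) and 10 μM CDPPB (200%) controls.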

Structures are written as SMILES.

T1 sequence (P41594 21-1212): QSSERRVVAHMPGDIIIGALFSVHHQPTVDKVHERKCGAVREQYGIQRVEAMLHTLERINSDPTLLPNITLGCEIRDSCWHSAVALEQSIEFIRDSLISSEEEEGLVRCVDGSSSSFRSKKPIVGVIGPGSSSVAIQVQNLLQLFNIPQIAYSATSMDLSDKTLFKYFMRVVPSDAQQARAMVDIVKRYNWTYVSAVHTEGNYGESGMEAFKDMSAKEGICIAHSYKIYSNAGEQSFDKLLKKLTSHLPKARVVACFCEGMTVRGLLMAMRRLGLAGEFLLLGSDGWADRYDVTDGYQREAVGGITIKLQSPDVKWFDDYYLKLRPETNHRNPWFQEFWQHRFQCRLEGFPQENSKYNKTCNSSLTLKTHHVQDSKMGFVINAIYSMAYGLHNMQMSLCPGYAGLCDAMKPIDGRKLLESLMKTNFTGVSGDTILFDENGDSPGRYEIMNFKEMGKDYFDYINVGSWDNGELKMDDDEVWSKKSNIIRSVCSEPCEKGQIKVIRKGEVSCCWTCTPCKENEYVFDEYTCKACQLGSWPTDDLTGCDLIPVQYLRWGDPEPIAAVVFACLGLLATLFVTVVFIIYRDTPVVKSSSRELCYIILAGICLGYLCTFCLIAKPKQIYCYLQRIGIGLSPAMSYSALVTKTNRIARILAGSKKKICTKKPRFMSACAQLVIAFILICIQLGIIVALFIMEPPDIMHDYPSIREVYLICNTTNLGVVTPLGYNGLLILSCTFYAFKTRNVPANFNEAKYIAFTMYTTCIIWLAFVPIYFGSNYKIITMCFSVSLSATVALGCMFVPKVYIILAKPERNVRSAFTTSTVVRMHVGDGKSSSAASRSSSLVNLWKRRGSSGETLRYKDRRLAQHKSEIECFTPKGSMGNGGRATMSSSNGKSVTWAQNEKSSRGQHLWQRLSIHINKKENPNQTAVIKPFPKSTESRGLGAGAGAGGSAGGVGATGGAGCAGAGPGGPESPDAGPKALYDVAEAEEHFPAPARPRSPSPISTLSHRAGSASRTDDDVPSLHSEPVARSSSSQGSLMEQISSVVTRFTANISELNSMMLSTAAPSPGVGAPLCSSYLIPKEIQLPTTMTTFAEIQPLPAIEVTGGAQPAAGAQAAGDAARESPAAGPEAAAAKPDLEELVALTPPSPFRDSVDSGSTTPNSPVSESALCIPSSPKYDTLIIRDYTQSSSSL

For orientation: EC50 means the concentration needed to bring the measured effect to its halfway point. As to `CCCc1cc(-c2ccc(F)c(C)c2)nn1CC(=O)N1CC=C(c2cc(OC)ncn2)CC1` [Example 7.02.070], the EC50 came out at 0.04 µM.

With `CCCc1cc(-c2ccc(F)c(C)c2)nn1CC(=O)N1CC=C(c2ncc(OC)cn2)CC1` [Example 7.02.071], the EC50 stood at 0.071 µM.

With `Cc1nc2c(s1)CCN(C(=O)Cn1nc(-c3ccc(F)cc3)cc1C(C)C)CC2` [Example 7.02.072], the EC50 came out at 0.251 µM.

As to `CC(C)c1cc(-c2ccc(F)cc2)nn1CC(=O)N1CCc2nc(N)sc2CC1` [Example 7.02.073], the EC50 is 0.627 µM.

Take `CCc1cc(-c2ccc(C)c(C)c2)nn1CC(=O)N1CCc2nc(N)sc2CC1` [Example 7.02.074]: the EC50 was determined as 0.171 µM.

`CCc1cc(-c2ccc(C)c(C)c2)nn1CC(=O)N1Cc2nc(C)sc2C1` [Example 7.02.075]: the EC50 is 0.318 µM.

`CCc1cc(-c2ccc(C)c(C)c2)nn1CC(=O)N1CC=C(c2ncc(OC)cn2)CC1` [Example 7.02.076]: the EC50 was found to be 0.293 µM.

Take `CCc1cc(-c2ccc(C)c(C)c2)nn1CC(=O)N1CCC(c2ncc(OC)cn2)CC1` [Example 7.02.077]: the EC50 came out at 1.8 µM.

For the compound `CCc1cc(-c2ccc(C)c(C)c2)nn1CC(=O)N1CC=C(c2cc(OC)ncn2)CC1` [Example 7.02.078], the concentration for a half-maximal effect (EC50) was 0.232 µM.

Take `CCc1cc(-c2cccc(C)c2)nn1CC(=O)N1CCc2nc(N)sc2CC1` [Example 7.02.079]: the EC50 was 0.182 µM.

For the compound `CCc1cc(-c2cccc(C)c2)nn1CC(=O)N1Cc2nc(C)sc2C1` [Example 7.02.080], the EC50 is 0.321 µM.

`CCc1cc(-c2cccc(C)c2)nn1CC(=O)N1CCC(c2ncc(OC)cn2)CC1` [Example 7.02.081]: the concentration for a half-maximal effect (EC50) came out at 0.991 µM.

Turning to `CCc1cc(-c2cccc(C)c2)nn1CC(=O)N1CC=C(c2ncc(OC)cn2)CC1` [Example 7.02.082], the EC50 is 0.291 µM.

On to `CCc1cc(-c2ccc(C)c(C)c2)nn1CC(=O)N1CCc2nc(C)sc2CC1` [Example 7.02.083], for which the concentration for a half-maximal effect (EC50) amounted to 0.035 µM.

With `CCc1cc(-c2cccc(C)c2)nn1CC(=O)N1CCc2nc(C)sc2CC1` [Example 7.02.084], the EC50 turned out to be 0.073 µM.

With `Cc1nnc(C2CCN(C(=O)Cn3nc(-c4ccc(C)c(C)c4)cc3-c3ccccc3)CC2)o1` [Example 7.02.085], the EC50 came out at 0.042 µM.

For the compound `Cc1nc2c(s1)CCN(C(=O)Cn1nc(-c3ccc(C)c(C)c3)cc1-c1ccccc1)CC2` [Example 7.02.086], the half-maximal effective concentration (EC50) was found to be 0.011 µM.

As to `COc1cc(C2=CCN(C(=O)Cn3nc(-c4ccc(C)c(C)c4)cc3-c3ccccc3)CC2)ncn1` [Example 7.02.087], the EC50 was determined as 0.028 µM.

Regarding `COc1cnc(C2CCN(C(=O)Cn3nc(-c4ccc(C)c(C)c4)cc3-c3ccccc3)CC2)nc1` [Example 7.02.088], the EC50 worked out at 0.254 µM.

Consider `COc1cnc(C2CCN(C(=O)Cn3nc(-c4ccc(C)c(C)c4)cc3-c3ccccc3)CC2)nc1` [Example 7.02.089], for which the EC50 is 0.059 µM.

With `Cc1nc2c(s1)CN(C(=O)Cn1nc(-c3ccc(C)c(C)c3)cc1-c1ccccc1)C2` [Example 7.02.090], the EC50 was 0.041 µM.

In the case of `COc1cc(C2CCN(C(=O)Cn3nc(-c4ccc(C)c(C)c4)cc3-c3ccccc3)CC2)ncn1` [Example 7.02.091], the EC50 stood at 0.115 µM.

For `CCc1cc(-c2ccc(C)c(C)c2)nn1CC(=O)N1CCC(c2cc(OC)ncn2)CC1` [Example 7.02.092], the EC50 is 0.369 µM.

Regarding `CCc1cc(-c2cccc(C)c2)nn1CC(=O)N1CC=C(c2cc(OC)ncn2)CC1` [Example 7.02.093], the EC50 is 0.12 µM.

`Cc1ccc(-c2cc(-c3ccccc3)n(CC(=O)N3CCc4nc(N)sc4CC3)n2)cc1C` [Example 7.02.094]: the concentration giving a half-maximal response (EC50) was 0.049 µM.

With `Cc1nnc(N2CCN(C(=O)Cn3nc(-c4ccc(F)c(C)c4)cc3-c3ccccc3)CC2)o1` [Example 7.02.095], the EC50 came to 0.006 µM.

On to `Cc1cc(C2=CCN(C(=O)Cn3nc(-c4ccc(F)c(C)c4)cc3-c3ccccc3)CC2)ncn1` [Example 7.02.096], for which the EC50 turned out to be 0.01 µM.

`Cc1nc2c(o1)CN(C(=O)Cn1nc(-c3ccc(F)c(C)c3)cc1-c1ccccc1)CC2` [Example 7.02.097]: the EC50 was 0.008 µM.

For the compound `Cc1cnc(C2CCN(C(=O)Cn3nc(-c4ccc(F)c(C)c4)cc3-c3ccccc3)CC2)o1` [Example 7.02.098], the EC50 is 0.012 µM.

On to `Cc1cc(-c2cc(-c3ccccc3)n(CC(=O)N3CC=C(c4ncc(F)cn4)CC3)n2)ccc1F` [Example 7.02.099], for which the EC50 was 0.018 µM.

On to `Cc1cnc(C2=CCN(C(=O)Cn3nc(-c4ccc(F)c(C)c4)cc3-c3ccccc3)CC2)o1` [Example 7.02.100], for which the half-maximal effective concentration (EC50) was found to be 0.004 µM.

For the compound `COc1cnc(C2=CCN(C(=O)Cn3nc(-c4ccc(F)c(C)c4)cc3-c3ccccc3)CC2)nc1` [Example 7.02.101], the EC50 turned out to be 0.014 µM.

For the compound `Cc1cnc(C2=CCN(C(=O)Cn3nc(-c4ccc(F)c(C)c4)cc3-c3ccccc3)CC2)nc1` [Example 7.02.102], the EC50 came out at 0.027 µM.

On to `COCCCc1cc(-c2ccc(F)c(C)c2)nn1CC(=O)N1CCc2nc(C)sc2CC1` [Example 7.02.103], for which the EC50 worked out at 0.034 µM.

As for `COCCCc1cc(-c2ccc(F)c(C)c2)nn1CC(=O)N1CCc2nc(N)sc2CC1` [Example 7.02.104], the EC50 worked out at 0.048 µM.

Consider `COCCCc1cc(-c2ccc(F)c(C)c2)nn1CC(=O)N1Cc2nc(C)sc2C1` [Example 7.02.105], for which the EC50 was found to be 0.242 µM.

As to `Cc1nc2c(o1)CCN(C(=O)Cn1nc(-c3ccc(F)c(C)c3)cc1-c1ccccc1)CC2` [Example 7.02.106], the EC50 was 0.01 µM.

Regarding `CCc1cc(-c2cccc(Cl)c2)nn1CC(=O)N1CC=C(c2ncc(C)o2)CC1` [Example 7.02.107], the EC50 was 0.039 µM.

As for `CCc1cc(-c2cccc(Cl)c2)nn1CC(=O)N1CCC(c2ncc(C)o2)CC1` [Example 7.02.108], the EC50 was 0.127 µM.

As to `CCc1cc(-c2cccc(Cl)c2)nn1CC(=O)N1CCc2nc(C)sc2CC1` [Example 7.02.109], the EC50 was determined as 0.061 µM.

For the compound `CCc1cc(-c2cccc(Cl)c2)nn1CC(=O)N1CCc2nc(N)sc2CC1` [Example 7.02.110], the EC50 amounted to 0.156 µM.

On to `CCc1cc(-c2cccc(Cl)c2)nn1CC(=O)N1Cc2nc(C)sc2C1` [Example 7.02.111], for which the 50% effective concentration (EC50) amounted to 0.334 µM.

As to `CCc1cc(-c2cccc(Cl)c2)nn1CC(=O)N1CCN(c2nnc(C)o2)CC1` [Example 7.02.112], the 50% effective concentration (EC50) amounted to 0.404 µM.

On to `CCc1cc(-c2cccc(Cl)c2)nn1CC(=O)N1CCC(c2nnc(C)o2)CC1` [Example 7.02.113], for which the EC50 is 0.637 µM.

`Cc1nnc(C2=CCN(C(=O)Cn3nc(-c4ccc(C)c(C)c4)cc3-c3ccccc3)CC2)o1` [Example 7.02.114]: the EC50 is 0.029 µM.

Turning to `Cc1nnc(C2=CCN(C(=O)Cn3nc(-c4ccc(F)c(C)c4)cc3-c3ccccc3)CC2)o1` [Example 7.02.115], the EC50 was 0.008 µM.

As for `Cc1ccc(-c2cc(-c3ccccc3)n(CC(=O)N3CCc4nc(C)sc4CC3)n2)nc1` [Example 7.02.116], the concentration for a half-maximal effect (EC50) worked out at 0.021 µM.

In the case of `Cc1ccc(-c2cc(-c3ccccc3)n(CC(=O)N3CCc4nc(N)sc4CC3)n2)nc1` [Example 7.02.117], the EC50 is 0.066 µM.

On to `Cc1ccc(-c2cc(-c3ccccc3)n(CC(=O)N3Cc4nc(C)sc4C3)n2)nc1` [Example 7.02.118], for which the EC50 stood at 0.127 µM.

As to `Cc1nc2c(s1)CCN(C(=O)Cn1nc(-c3ccc(F)c(C)c3)cc1CC(C)C)CC2` [Example 7.02.119], the EC50 turned out to be 0.012 µM.

As to `Cc1cc(-c2cc(CC(C)C)n(CC(=O)N3CCc4nc(N)sc4CC3)n2)ccc1F` [Example 7.02.120], the EC50 worked out at 0.021 µM.

For `Cc1nc2c(s1)CN(C(=O)Cn1nc(-c3ccc(F)c(C)c3)cc1CC(C)C)C2` [Example 7.02.121], the EC50 came to 0.049 µM.

Take `Cc1nc2c(s1)CCN(C(=O)Cn1nc(-c3ccc(C)c(C)n3)cc1-c1ccccc1)CC2` [Example 7.02.122]: the EC50 turned out to be 0.038 µM.

For `Cc1ccc(-c2cc(-c3ccccc3)n(CC(=O)N3CCc4nc(N)sc4CC3)n2)nc1C` [Example 7.02.123], the EC50 was determined as 0.071 µM.

In the case of `Cc1nc2c(s1)CN(C(=O)Cn1nc(-c3ccc(C)c(C)n3)cc1-c1ccccc1)C2` [Example 7.02.124], the EC50 amounted to 0.068 µM.

Take `CCc1cccc(-c2cc(CC)n(CC(=O)N3Cc4nc(C)sc4C3)n2)c1` [Example 7.02.125]: the EC50 is 0.253 µM.

On to `Cc1nc2c(s1)CCN(C(=O)Cn1nc(-c3cc(C)c(C)cn3)cc1-c1ccccc1)CC2` [Example 7.02.126], for which the EC50 came out at 0.068 µM.

For `Cc1cnc(-c2cc(-c3ccccc3)n(CC(=O)N3CCc4nc(N)sc4CC3)n2)cc1C` [Example 7.02.127], the EC50 stood at 0.2 µM.

Turning to `CCc1cccc(-c2cc(CC)n(CC(=O)N3CCc4nc(C)sc4CC3)n2)c1` [Example 7.02.129], the EC50 stood at 0.156 µM.

Regarding `Cc1cc(-c2cc(-c3ccccc3)n(CC(=O)N3CCc4ccsc4CC3)n2)ccc1F` [Example 7.02.130], the EC50 stood at 0.057 µM.

`Cc1cc(-c2cc(-c3ccccc3)n(CC(=O)N3CCc4cccnc4CC3)n2)ccc1F` [Example 7.02.131]: the EC50 was 0.008 µM.

For the compound `CCc1cc(-c2cc(C)c(F)c(C)c2)nn1CC(=O)N1CCc2nc(C)sc2CC1` [Example 7.02.132], the EC50 came to 0.186 µM.

In the case of `CCc1cc(-c2cc(C)c(F)c(C)c2)nn1CC(=O)N1CCc2nc(N)sc2CC1` [Example 7.02.133], the EC50 is 0.276 µM.

In the case of `Cc1cnc(C2=CCN(C(=O)Cn3nc(-c4ccc(F)c(C)c4)cc3-c3ccccc3)CC2)s1` [Example 7.02.134], the EC50 is 0.015 µM.

For `CCc1cc(-c2ccc(F)c(C)c2)nn1CC(=O)N1CC=C(c2ncc(C)s2)CC1` [Example 7.02.135], the EC50 turned out to be 0.045 µM.

For `COc1cccc(C2=CCN(C(=O)Cn3nc(-c4ccc(F)c(C)c4)cc3-c3ccccc3)CC2)c1` [Example 7.02.136], the EC50 amounted to 0.141 µM.

Take `CCc1cc(-c2ccc(F)c(C)c2)nn1CC(=O)N1CC=C(c2cccc(OC)c2)CC1` [Example 7.02.137]: the EC50 was 0.352 µM.
